Data taken from PMC9939793 (Infection and Drug Resistance, 2023).

System: all types and subtypes of influenza tested
Format: biochemical, influenza virus
Conditions: peramivir only 2019/20

`CCC(CC)[C@H](NC(C)=O)[C@@H]1[C@H](O)[C@@H](C(=O)O)C[C@H]1N=C(N)N` [Peramivir, peramivir] was tested, and the “activity of NAI in the neuraminidase inhibition assay” value was “most potent inhibitor”.
